≈ marks a conversion by molar mass, not a printed value. Like-named read-outs stand apart in the source and are kept apart here.
Legend:
[1] = system: Corynebacterium pyogenes CY1; assay: MIC against veterinary bacteria in vitro; settings: CY1, 18 h
Procedure: (§1) The activity of the compounds of the Examples against various veterinarily important bacteria, was assayed in vitro using two-fold serial dilutions in Diagnostic Sensitivity Test Agar inoculated with 10^4 organisms.

Bord. bronchiseptica B09 = assay: MIC against veterinary bacteria in vitro; settings: Bordetella bronchiseptica, B09, 18 h
Procedure: as §1

M. hyorhinis ATCC 23234 = assay: MIC against mycoplasma in vitro; assay type: cell-based; settings: Mesomycoplasma hyorhinis, ATCC23234, 144 h; M. hyorhinis ATCC 23234; 6 days, 37° C.; read-out: MIC
P. mirabilis 889 = assay: MIC against human bacteria in vitro; assay type: cell-based; settings: Proteus mirabilis, 889, 18 h
[2] = system: M. suipneumoniae J2206/183^b; assay: MIC against mycoplasma in vitro; assay type: cell-based; settings: Mesomycoplasma hyopneumoniae, 144 h; M. suipneumoniae J2206/183^b; 6 days, 37° C.; read-out: MIC
Past. multocida PA1 = assay: MIC against veterinary bacteria in vitro; settings: Pasteurella multocida, PA1, 18 h
Procedure: as §1

Past. multocida PA2 = assay: MIC against veterinary bacteria in vitro; settings: Pasteurella multocida, PA2, 18 h
Procedure: as §1

Staph. aureus Russell = assay: MIC against human bacteria in vitro; assay type: cell-based; settings: Staphylococcus aureus
M. bovis NCTC 10131 = assay: microbe, parasite or virus in culture; assay type: cell-based; settings: NCTC10131, 144 h
Strep. pneumoniae CN33 = assay: MIC against human bacteria in vitro; assay type: cell-based; settings: Streptococcus pneumoniae
M. suipneumoniae TAM 6N = assay: MIC against mycoplasma in vitro; assay type: cell-based; settings: Mesomycoplasma hyopneumoniae, TAM6N, 144 h; M. suipneumoniae TAM 6N; 6 days, 37° C.; read-out: MIC
M. suipneumoniae NB12 = assay: MIC against mycoplasma in vitro; assay type: cell-based; settings: Mesomycoplasma hyopneumoniae, 144 h; M. suipneumoniae NB12; Friis broth, 0.9% agarose, 6 days, 37° C.; read-out: MIC
[3] = system: Corynebacterium xerosis 9755; assay: MIC against human bacteria in vitro; assay type: cell-based
Staph. aureus W2827 = assay: MIC against human bacteria in vitro; assay type: cell-based; settings: Staphylococcus aureus
[4] = system: M. hyosynoviae ATCC 25591; assay: MIC against mycoplasma in vitro; assay type: cell-based; settings: 144 h; M. hyosynoviae ATCC 25591; 6 days, 37° C.; read-out: MIC
Strep. faecalis I = assay: MIC against human bacteria in vitro; assay type: cell-based; settings: Enterococcus faecalis
Strep. dysgalactiae SPD1 = assay: MIC against veterinary bacteria in vitro; settings: Streptococcus dysgalactiae, SPD1, 18 h
Procedure: as §1

M. suipneumoniae MS 16 = assay: MIC against mycoplasma in vitro; assay type: cell-based; settings: Mesomycoplasma hyopneumoniae, MS16, 144 h; M. suipneumoniae MS 16; 6 days, 37° C.; read-out: MIC
Sarcina lutea 8340 = assay: MIC against human bacteria in vitro; assay type: cell-based
Past. haemolytica PA5 = assay: MIC against veterinary bacteria in vitro; settings: Mannheimia haemolytica, PA5, 18 h
Procedure: as §1

[5] = system: Neisseria catarrhalis 1502; assay: MIC against human bacteria in vitro; assay type: cell-based
M. suipneumoniae HK(2) = assay: MIC against mycoplasma in vitro; assay type: cell-based; settings: Mesomycoplasma hyopneumoniae, 144 h; M. suipneumoniae HK(2); 6 days, 37° C.; read-out: MIC
Strep. agalactiae 2788-B = assay: MIC against human bacteria in vitro; assay type: cell-based; settings: Streptococcus agalactiae
[6] = system: M. suipneumoniae ATCC 25095; assay: MIC against mycoplasma in vitro; assay type: cell-based; settings: Mesomycoplasma hyopneumoniae, ATCC25095, 144 h; M. suipneumoniae ATCC 25095; 6 days, 37° C.; read-out: MIC
[7] = system: Strep. suis (group D) SPS11; assay: MIC against veterinary bacteria in vitro; settings: Streptococcus suis, 18 h
Procedure: as §1

[8] = system: Erysipelothrix rhusiopathiae NCTC 8163; assay: MIC against veterinary bacteria in vitro; settings: Erysipelothrix rhusiopathiae, NCTC8163, 18 h
Procedure: as §1

[9] = system: Staph. aureus B4 (pen. resistant); assay: MIC against veterinary bacteria in vitro; settings: Staphylococcus aureus, 18 h
Procedure: as §1

M. suipneumoniae LABER = assay: MIC against mycoplasma in vitro; assay type: cell-based; settings: Mesomycoplasma hyopneumoniae, 144 h; M. suipneumoniae LABER; 6 days, 37° C.; read-out: MIC
[10] = system: M. bovigenitalium ATCC 14173; assay: MIC against mycoplasma in vitro; assay type: cell-based; settings: 144 h; M. bovigenitalium ATCC 14173; 6 days, 37° C.; read-out: MIC
[11] = system: Haemophilus influenzae Wy21; assay: MIC against human bacteria in vitro; assay type: cell-based; settings: Haemophilus influenzae Wy21; 5% chocolated horse blood agar, 18 hours; read-out: MIC
M. suipneumoniae UCD 1 = assay: MIC against mycoplasma in vitro; assay type: cell-based; settings: Mesomycoplasma hyopneumoniae, UCD1, 144 h; M. suipneumoniae UCD 1; 6 days, 37° C.; read-out: MIC
K. aerogenes A = assay: MIC against human bacteria in vitro; assay type: cell-based; settings: Klebsiella aerogenes
[12] = system: Ps. aeruginosa NCTC 10662; assay: MIC against human bacteria in vitro; assay type: cell-based; settings: Pseudomonas aeruginosa
Bord. bronchiseptica B08 = assay: MIC against veterinary bacteria in vitro; settings: Bordetella bronchiseptica, B08, 18 h
Procedure: as §1

M. hyorhinis ATCC 25021 = assay: MIC against mycoplasma in vitro; assay type: cell-based; settings: Mesomycoplasma hyorhinis, ATCC25021, 144 h; M. hyorhinis ATCC 25021; 6 days, 37° C.; read-out: MIC

Structure (SMILES) | MIC [1] | MIC (Bord. bronchiseptica B09) | MIC (M. hyorhinis ATCC 23234) | MIC (P. mirabilis 889) | MIC [2] | MIC (Past. multocida PA1) | MIC (Past. multocida PA2) | MIC (M. bovis NCTC 10131) | MIC (M. suipneumoniae TAM 6N) | MIC (M. suipneumoniae NB12) | MIC [4] | MIC (Strep. dysgalactiae SPD1) | MIC (M. suipneumoniae MS 16) | MIC (Past. haemolytica PA5) | MIC (M. suipneumoniae HK(2)) | MIC [6] | MIC [7] | MIC [8] | MIC [9] | MIC (M. suipneumoniae LABER) | also measured
C/C(=C/c1ncc(-c2ccccc2)o1)C[C@@H]1OC[C@H](C[C@@H]2O[C@H]2[C@@H](C)[C@H](C)O)[C@@H](O)[C@H]1O [Example 2, 2-{3-[5-(2,3-epoxy-5-hydroxy-4-methylhexyl)-3,4-dihydroxytetrahydropyran-2-yl]-2-methylprop-1(Z)-enyl}-5-phenyloxazole] | > 80 µg/mL | > 80 µg/mL | 10 µg/mL (≈ 22.5 µM) | > 50 µg/mL | 10 µg/mL (≈ 22.5 µM) | > 80 µg/mL | 20 µg/mL (≈ 45.1 µM) | 0.25 µg/mL (≈ 0.564 µM) | > 10 µg/mL | > 10 µg/mL | 5 µg/mL (≈ 11.3 µM) | 10 µg/mL (≈ 22.5 µM) | 5 µg/mL (≈ 11.3 µM) | > 80 µg/mL | 10 µg/mL (≈ 22.5 µM) | 10 µg/mL (≈ 22.5 µM) | > 80 µg/mL | > 80 µg/mL | 20 µg/mL (≈ 45.1 µM) | 10 µg/mL (≈ 22.5 µM) | MIC (Staph. aureus Russell; 18 h): > 50 µg/mL; MIC (Strep. pneumoniae CN33; CN33, 18 h): > 50 µg/mL; MIC ([3]; Corynebacterium xerosis, 9755, 18 h): > 50 µg/mL; MIC (Staph. aureus W2827; W2827, 18 h): > 50 µg/mL; MIC (Strep. faecalis I; 18 h): > 50 µg/mL; MIC (Sarcina lutea 8340; Micrococcus luteus, 8340, 18 h): > 50 µg/mL; MIC ([5]; Neisseria, 1502, 18 h): > 50 µg/mL; MIC (Strep. agalactiae 2788-B; 2788B, 18 h): > 50 µg/mL; MIC [10]: 0.5 µg/mL (≈ 1.13 µM); MIC [11]: 12.5 µg/mL (≈ 28.2 µM); MIC (M. suipneumoniae UCD 1): 10 µg/mL (≈ 22.5 µM); MIC (K. aerogenes A; 18 h): > 50 µg/mL; MIC ([12]; NCTC10662, 18 h): > 50 µg/mL; MIC (Bord. bronchiseptica B08): > 80 µg/mL; MIC (M. hyorhinis ATCC 25021): 5 µg/mL (≈ 11.3 µM)
C/C(=C\c1ncc(-c2ccc([N+](=O)[O-])cc2)o1)C[C@@H]1OC[C@H](C[C@@H]2O[C@H]2[C@@H](C)[C@H](C)O)[C@@H](O)[C@H]1O [Example 3, 5-p-nitro-phenyl-2-(1-normon-2-yl)-oxazole A] | 80 µg/mL (≈ 164 µM) | 5 µg/mL (≈ 10.2 µM) | 0.1 µg/mL (≈ 0.205 µM) | 50 µg/mL (≈ 102 µM) | 0.25 µg/mL (≈ 0.512 µM) | 5 µg/mL (≈ 10.2 µM) | 0.625 µg/mL (≈ 1.28 µM) | 0.025 µg/mL (≈ 0.0512 µM) | 0.25 µg/mL (≈ 0.512 µM) | 0.1 µg/mL (≈ 0.205 µM) | 0.25 µg/mL (≈ 0.512 µM) | 0.312 µg/mL (≈ 0.639 µM) | 0.05 µg/mL (≈ 0.102 µM) | 10 µg/mL (≈ 20.5 µM) | 0.25 µg/mL (≈ 0.512 µM) | 0.1 µg/mL (≈ 0.205 µM) | 2.5 µg/mL (≈ 5.12 µM) | > 80 µg/mL | 0.312 µg/mL (≈ 0.639 µM) | 0.1 µg/mL (≈ 0.205 µM) | MIC (Staph. aureus Russell; Staph. aureus Russell, 5% chocolated horse blood agar, 18 hours, read-out: MIC): 5 µg/mL (≈ 10.2 µM); MIC (Strep. pneumoniae CN33; Strep. pneumoniae CN33, 5% chocolated horse blood agar, 18 hours, read-out: MIC): 0.5 µg/mL (≈ 1.02 µM); MIC ([3]; Corynebacterium xerosis 9755, 5% chocolated horse blood agar, 18 hours, read-out: MIC): > 100 µg/mL; MIC (Staph. aureus W2827; Staph. aureus W2827, 5% chocolated horse blood agar, 18 hours, read-out: MIC): 1 µg/mL (≈ 2.05 µM); MIC (Strep. faecalis I; Strep. faecalis I, 5% chocolated horse blood agar, 18 hours, read-out: MIC): 50 µg/mL (≈ 102 µM); MIC (Sarcina lutea 8340; Micrococcus luteus, Sarcina lutea 8340, 5% chocolated horse blood agar, 18 hours, read-out: MIC): > 100 µg/mL; MIC ([5]; Neisseria catarrhalis 1502, 5% chocolated horse blood agar, 18 hours, read-out: MIC): 0.5 µg/mL (≈ 1.02 µM); MIC (Strep. agalactiae 2788-B; Strep. agalactiae 2788-B, 5% chocolated horse blood agar, 18 hours, read-out: MIC): 0.5 µg/mL (≈ 1.02 µM); MIC [10]: 0.05 µg/mL (≈ 0.102 µM); MIC [11]: 0.1 µg/mL (≈ 0.205 µM); MIC (M. suipneumoniae UCD 1): 0.25 µg/mL (≈ 0.512 µM); MIC (K. aerogenes A; K. aerogenes A, 5% chocolated horse blood agar, 18 hours, read-out: MIC): 100 µg/mL (≈ 205 µM); MIC ([12]; NCTC10662, Ps. aeruginosa NCTC 10662, 5% chocolated horse blood agar, 18 hours, read-out: MIC): > 100 µg/mL; MIC (Bord. bronchiseptica B08): 40 µg/mL (≈ 81.9 µM); MIC (M. hyorhinis ATCC 25021): 0.05 µg/mL (≈ 0.102 µM)

Reference: patent US5041567A, “Antibacterial monic acid derivatives” (Beecham Group plc, priority 1982, dated 1991)
